Experiments:
Format in all cases: in vivo
Farage cells = assay: Farage DLBCL xenograft mouse model, tumor growth inhibition; conditions: single agent, day 25
Description: Farage cells are of DLBCL origin. Farage cells were cultured in RPMI1640 complete medium supplemented with 10% (v/v) fetal bovine serum, and 100 μg/mL of penicillin and streptomycin. On the day of implantation, aggregated cells were dispersed. Four hours later, media was removed and the cells were collected as described above. Cells were re-suspended in cold (4° C.) PBS and same volume of matrigel was added to give a final concentration of 1.5×10^7 cells/mL for Farage. Re-suspended cells were placed on ice prior to inoculation. The right flank region of each mouse (NCG) was cleaned with 75% ethanol prior to cell inoculation. Animals were then injected subcutaneously with 3×10^6 Farage cells in 100 μl of cell suspension in the right front flank via a 26-gauge needle.
The animals were randomly divided into 6 groups with 10 mice per group. The groups consisted of vehicle group (0.5% (w/v) methylcellulose solution), 7.5 mg/kg BTK-1 (dissolved in 0.5% (w/v) methylcellulose solution), 12 mg/kg Compound 2 (dissolved in 0.5% (w/v) methylcellulose solution), 36 mg/kg Compound 2 (dissolved in 0.5% (w/v) methylcellulose solution), and the combination of Compound 2 and BTK-1 (12 mg/kg and 7.5 mg/kg, respectively), or (36 mg/kg and 7.5 mg/kg, respectively), see Table 4. BTK-1 and Compound 2 were administered as a combination by oral gavage (p.o.) twice daily (BID). After implantation, primary tumor volume was measured in two dimensions using a caliper. Compound 2 was (S)-3-(1-(8-amino-1-methylimidazo [1,5-a] pyrazin-3-yl) ethyl)-5-chloro-6-fluoro-2-isopropoxy-N-(2-(4-methylpiperazin-1-yl) ethyl) benzamide fumarate.
(§1) Individual body weight was recorded twice weekly, with mice being monitored daily for clinical signs of toxicity for the duration of the study. […]
(§2) Tumor volume was calculated using the formula: V=0.5×(a×b^2) where a and b are the long and short diameters of the tumor, respectively. Tumor growth inhibition (TGI) was calculated using the formula in the above examples.

MINO cells = assay: MINO MCL xenograft mouse model, tumor growth inhibition; conditions: single agent, day 24
Description: MINO cells are of MCL origin. The MINO cells were cultured in RPMI1640 complete medium supplemented with 10% (v/v) fetal bovine serum, and 100 μg/mL of penicillin and streptomycin. On the day of implantation, aggregated cells were dispersed. Four hours later, media was removed, and the cells were collected as described above. Cells were re-suspended in cold (4° C.) PBS with a final concentration of 1×10^8 cells/mL. Re-suspended cells were placed on ice prior to inoculation. The right flank region of each mouse (NOD/SCID) was cleaned with 75% ethanol prior to cell inoculation. Animals were then injected subcutaneously with 1×10^7 MINO cells in 100 μl of cell suspension in the right front flank via a 26-gauge needle.
On day 1 after inoculation, animals were randomly divided into 6 groups with 10 mice per group according to the inoculation order. The groups consisted of vehicle group (0.5% (w/v) methylcellulose solution), 7.5 mg/kg BTK-1 (dissolved in 0.5% (w/v) methylcellulose solution), 12 mg/kg Compound 2 (dissolved in 0.5% (w/v) methylcellulose solution), 36 mg/kg Compound 2 (dissolved in 0.5% (w/v) methylcellulose solution) and the combination of Compound 2/BTK-1 (12 mg/kg Compound 2 and 7.5 mg/kg BTK-1), or (36 mg/kg Compound 2 and 7.5 mg/kg BTK-1), see Table 2. The compounds were administered by oral gavage (p.o.) twice daily (BID). After implantation, primary tumor volume was measured in two dimensions using a caliper. Compound 2 was (S)-3-(1-(8-amino-1-methylimidazo[1,5-a]pyrazin-3-yl)ethyl)-5-chloro-6-fluoro-2-isopropoxy-N-(2-(4-methylpiperazin-1-yl)ethyl)benzamide fumarate.
(§3) Mice were euthanized using carbon dioxide when their tumor volume reached 2,000 mm^3 after twice measurements, the tumor was ulcerated, or body weight loss exceeded 20%.
as §2, with “following formula: % TGI=100×[1−(treatedt/vehiclet)](treatedt=treated tumor volume at time t) and (vehiclet=vehicle tumor volume at time t)” for “formula in the above examples.”

JeKo-1 cells = assay: JeKo-1 MCL xenograft mouse model, tumor growth inhibition; conditions: single agent, day 21
Description: JeKo-1 cells are of mantle cell lymphoma (MCL) origin. These cells were cultured in RPMI1640 complete medium supplemented with 10% (v/v) fetal bovine serum, and 100 μg/mL of penicillin and streptomycin. NOD/SCID mice were pre-treated with cyclophosphamide (prepared in saline, 100 mg/kg, i.p.) and disulfiram (prepared in 0.8% Tween-80 in saline, 125 mg/kg, p.o., two hours after each dose of cyclophosphamide) once daily for two days.
On the day of implantation, aggregated cells were dispersed. Four hours later, the media was removed, and the cells were collected and re-suspended in cold (4° C.) DPBS with a final concentration of 1×10^8 cells/mL. Re-suspended cells were placed on ice prior to inoculation. The right flank region of each mouse was cleaned with 75% ethanol prior to cell inoculation. Animals were then co-injected subcutaneously with 1×10^7 JeKo-1 cells in 100 μL of cell suspension in the right front flank via a 26-gauge needle.
Animals were randomly divided into six groups with 10 mice per group. The groups consisted of vehicle group (0.5% (w/v) methylcellulose solution), 7.5 mg/kg BTK-1 (dissolved in 0.5% (w/v) methylcellulose solution), 12 mg/kg Compound 2 (dissolved in 0.5% (w/v) methylcellulose solution), 36 mg/kg Compound 2 (dissolved in 0.5% (w/v) methylcellulose solution), and the combination of Compound 2/BTK-1 (12 mg/kg Compound 2 and 7.5 mg/kg BTK-1), or (36 mg/kg Compound 2 and 7.5 mg/kg BTK-1), see Table 1. […]
Both compounds were administered by oral gavage (p.o.) twice daily (BID). After implantation, primary tumor volume was measured in two dimensions using a caliper.
as §1
as §2, with “following formula: % TGI=100×[1−(treatedt/vehiclet)](treatedt=treated tumor volume at time t) and (vehiclet=vehicle tumor volume at time t)” for “formula in the above examples.”

TMD8 cells = assay: TMD8 DLBCL xenograft mouse model, tumor growth inhibition; conditions: single agent, day 14
Description: TMD8 cells are of DLBCL origin. TMD8 cells were cultured in RPMI1640 complete medium supplemented with 10% (v/v) fetal bovine serum, and 100 μg/mL of penicillin and streptomycin. On the day of implantation, aggregated cells were dispersed. Four hours later, media was removed, and the cells were collected as described above. Cells were re-suspended in cold (4° C.) PBS and same volume of matrigel was added to give a final concentration of 5×10^7 cells/mL for TMD8. Re-suspended cells were placed on ice prior to inoculation. The right flank region of each mouse (NOD/SCID) was cleaned with 75% ethanol prior to cell inoculation. Animals were then injected subcutaneously with 1×10^7 TMD8 cells in 200 μl of cell suspension in the right front flank via a 26-gauge needle.
On day 15 after inoculation, animals were randomly divided into 8 groups with 10 mice per group according to the tumor volume. The groups consisted of vehicle group (0.5% (w/v) methylcellulose solution), 2.5 mg/kg BTK-1 (dissolved in 0.5% (w/v) methylcellulose solution), 10 mg/kg Compound 1 (dissolved in 0.5% (w/v) methylcellulose solution), 30 mg/kg Compound 1 (dissolved in 0.5% (w/v) methylcellulose solution), 100 mg/kg Compound 1 (dissolved in 0.5% (w/v) methylcellulose solution) and the combination of Compound 1/BTK-1 (10 mg/kg Compound 1 and 2.5 mg/kg BTK-1), (30 mg/kg Compound 1 and 2.5 mg/kg BTK-1), or (100 mg/kg Compound 1 and 2.5 mg/kg BTK-1), see Table 3. BTK-1 and Compound 1 were administered by oral gavage (p.o.) twice daily (BID). After implantation, primary tumor volume was measured in two dimensions using a caliper. Compound 1 was (S)-3-(1-(8-amino-1-methylimidazo[1,5-a] pyrazin-3-yl)ethyl)-5-chloro-6-fluoro-2-isopropoxy-N-(2-(4-methylpiperazin-1-yl)ethyl)benzamide.
as §3, with “Individual body weight was recorded twice weekly, with mice being monitored daily for clinical signs of toxicity for the duration of the study. Mice” for “Mice”
as §2

[1] = Bioavailability of salts of Compound 1; conditions: among different salts of Compound 1

SMILES: C=CC(=O)N1CCC([C@@H]2CCNc3c(C(N)=O)c(-c4ccc(Oc5ccccc5)cc4)nn32)CC1 [BTK-1, (S)-7-(1-acryloylpiperidin-4-yl)-2-(4-phenoxyphenyl)-4,5,6,7-tetra-hydropyrazolo[1,5-a]pyrimidine-3-carboxamide]
- % TGI (Farage cells; 7.5 mg/kg p.o. BID): 43%
- % TGI (MINO cells; 7.5 mg/kg p.o. BID): 22%
- % TGI (JeKo-1 cells; 7.5 mg/kg p.o. BID): 43%
- % TGI (TMD8 cells; 2.5 mg/kg p.o. BID): 68%

SMILES: Cc1nc([C@@H](C)c2cc(Cl)c(F)c(C(=O)NCCN3CCN(C)CC3)c2OC(C)C)n2ccnc(N)c12 [Compound 1, (S)-3-(1-(8-amino-1-methylimidazo[1,5-a]pyrazin-3-yl)ethyl)-5-chloro-6-fluoro-2-isopropoxy-N-(2-(4-methylpiperazin-1-yl)ethyl)benzamide]
- % TGI (TMD8 cells; 10 mg/kg p.o. BID): 27%
- % TGI (TMD8 cells; 30 mg/kg p.o. BID): 26%
- % TGI (TMD8 cells; 100 mg/kg p.o. BID): 43%

SMILES: Cc1nc([C@@H](C)c2cc(Cl)c(F)c(C(=O)NCCN3CCN(C)CC3)c2OC(C)C)n2ccnc(N)c12.O=C(O)/C=C/C(=O)O [Compound 2, (S)-3-(1-(8-amino-1-methylimidazo[1,5-a]pyrazin-3-yl)ethyl)-5-chloro-6-fluoro-2-isopropoxy-N-(2-(4-methylpiperazin-1-yl)ethyl)benzamide fumarate]
- bioavailability [1]: high bioavailability
- % TGI (Farage cells; 12 mg/kg p.o. BID): 40%
- % TGI (Farage cells; 36 mg/kg p.o. BID): 52%
- % TGI (MINO cells; 12 mg/kg p.o. BID): 26%
- % TGI (MINO cells; 36 mg/kg p.o. BID): 36%
- % TGI (JeKo-1 cells; 12 mg/kg p.o. BID): 59%
- % TGI (JeKo-1 cells; 36 mg/kg p.o. BID): 62%
